Laboratory results reported in ChEMBL document CHEMBL1201862, “PubChem BioAssay data set” (2004).
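Exposure lasted 48 hours, with cells grown in 96-well plates and compounds tested at five concentrations. At the GI50, growth is halved.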 The source made the active and inactive calls. No stated cut-off is given here; in the data, active = GI50 up to about 1.1 µM and inactive = higher.

Assays:
Test in all cases: NCI tumour cell line growth inhibition, 48 h
[1] = test system: NCI-H23
[2] = test system: UACC-257
[3] = test system: CCRF-CEM
[4] = test system: K562
[5] = test system: SK-MEL-5
[6] = test system: SF-539
[7] = test system: HCC 2998
[8] = test system: COLO 205
[9] = test system: MOLT-4
[10] = test system: SK-OV-3
[11] = test system: TK-10
[12] = test system: U-251
[13] = test system: NCI-H226
[14] = test system: HCT-116
[15] = test system: RPMI-8226
[16] = test system: RXF 393
[17] = test system: CAKI-1

Measured: GI50

CCN1C[C@]2(C)CC[C@H](OC)C34C1C([C@H](OC(C)=O)[C@@H]32)[C@@]1(OC)C[C@H](OC)[C@H]2C[C@@H]4[C@@H]1[C@H]2O
inactive: [1] > 100 µM | [2] > 100 µM | [3] > 100 µM | [4] 92.5 µM | [5] > 100 µM | [6] > 100 µM | [7] > 100 µM | [8] 55.5 µM | [9] > 100 µM | [10] > 100 µM | [11] > 100 µM | [12] > 100 µM | [13] > 100 µM | [14] > 100 µM | [15] > 100 µM | [16] > 100 µM | [17] > 100 µM

O=C(O)/C(Cl)=C(Cl)/C=N/NC(=O)c1cc2ccccc2cc1O
inactive: [1] 8.57 µM | [2] 15.5 µM | [3] 4.86 µM | [4] 6.11 µM | [5] 9.82 µM | [6] 29.6 µM | [8] 32.5 µM | [9] 5.89 µM | [10] 49.2 µM | [11] 35.5 µM | [12] 27.5 µM | [13] 18.6 µM | [14] 13.9 µM | [15] 6.71 µM | [17] 21 µM

COc1nc2c(c(O)c(C)c(=O)n2OC2OC(COC(C)=O)C(OC(C)=O)C(OC(C)=O)C2OC(C)=O)c(=O)n1C (configuration not stated)
inactive: [1] > 100 µM | [3] > 100 µM | [4] > 100 µM | [5] > 100 µM | [6] > 100 µM | [7] > 100 µM | [8] > 100 µM | [9] > 100 µM | [11] > 100 µM | [12] > 100 µM | [13] > 100 µM | [14] > 100 µM | [16] > 100 µM

CC(=O)OC1CC2(C)OC(Cc3ccccc32)O1 (configuration not stated)
inactive: [1] > 100 µM | [2] > 100 µM | [3] > 100 µM | [4] > 100 µM | [6] > 100 µM | [7] > 100 µM | [8] > 100 µM | [9] > 100 µM | [10] > 100 µM | [11] > 100 µM | [12] > 100 µM | [13] > 100 µM | [14] > 100 µM | [15] > 100 µM | [16] > 100 µM

O=C(c1ccccc1)c1c(CNCc2ccccc2)n(C(=O)c2ccccc2)c2ccccc12
inactive: [1] 17.1 µM | [2] 29.6 µM | [3] 23.2 µM | [4] 6.37 µM | [5] 29.9 µM | [6] 69.3 µM | [7] 86.9 µM | [8] 47 µM | [9] 7.43 µM | [11] > 100 µM | [12] 20.8 µM | [13] 29.6 µM | [14] 8.67 µM | [15] 11.6 µM | [17] 69.3 µM

Cc1ccccc1N(CCC#N)C1=NN(C(=O)CC(=O)Nc2ccccc2)C(c2ccccc2)C1 (configuration not stated)
inactive: [1] > 100 µM | [2] > 100 µM | [3] > 100 µM | [4] > 100 µM | [5] > 100 µM | [6] > 100 µM | [7] > 100 µM | [8] > 100 µM | [9] > 100 µM | [10] > 100 µM | [12] > 100 µM | [13] > 100 µM | [14] > 100 µM | [15] > 100 µM | [16] > 100 µM

COc1ccc(N2C(=O)C3CC(c4ccc(C)cc4)c4c([nH]c5ccccc45)C3C2=O)cc1 (configuration not stated)
inactive: [1] > 45.8 µM | [2] > 100 µM | [3] 11 µM | [4] > 63 µM | [5] 63.1 µM | [6] 23.7 µM | [7] 52.7 µM | [8] 20.7 µM | [9] 21 µM | [10] 29.5 µM | [11] 36.5 µM | [12] 10 µM | [13] 9.53 µM | [14] 4.43 µM | [17] > 96.2 µM

COc1c(O)ccc(/C=N/NC(=S)NCOCCOC(C)=O)c1OC
inactive: [1] > 100 µM | [2] > 100 µM | [3] > 100 µM | [4] > 100 µM | [5] > 100 µM | [6] > 100 µM | [7] > 100 µM | [8] > 100 µM | [10] > 100 µM | [11] > 100 µM | [12] > 100 µM | [13] > 100 µM | [14] > 100 µM | [16] > 100 µM

CCCCOC(=O)C1C(c2ccc(Cl)cc2)NC(c2ccc(Cl)cc2)C(C(=O)OCCCC)S1(=O)=O (configuration not stated)
inactive: [1] > 100 µM | [2] > 100 µM | [3] > 100 µM | [4] > 100 µM | [5] > 100 µM | [6] > 100 µM | [7] > 100 µM | [8] > 100 µM | [9] > 100 µM | [10] > 100 µM | [11] > 100 µM | [12] > 100 µM | [13] > 100 µM | [15] > 100 µM | [16] > 100 µM | [17] > 100 µM

Cc1ccc(/C=C2\CCCC(C(NO)c3ccc(C)cc3)C2=NO)cc1 (configuration not stated)
inactive: [1] 24 µM | [2] 29.6 µM | [3] 21 µM | [4] 33.8 µM | [5] 21.2 µM | [6] 39.6 µM | [7] 16.8 µM | [8] 19.1 µM | [9] 19.1 µM | [10] > 100 µM | [11] > 100 µM | [12] 55.2 µM | [14] 45.6 µM | [15] 22.6 µM | [16] 20.6 µM | [17] 81.8 µM

Cc1cc2c(C)nn(Cc3ccccc3Cl)c2c(C#N)c1C
inactive: [1] > 100 µM | [2] > 100 µM | [3] > 100 µM | [6] > 100 µM | [7] > 100 µM | [8] > 100 µM | [9] > 100 µM | [10] > 100 µM | [11] > 100 µM | [12] > 100 µM | [13] > 100 µM | [14] > 100 µM | [15] > 100 µM | [16] > 100 µM

CN1NC2(CCCCC2)ON=C1c1ccccc1
inactive: [1] > 100 µM | [2] > 100 µM | [3] > 100 µM | [4] > 100 µM | [5] > 100 µM | [6] > 100 µM | [8] > 100 µM | [9] > 100 µM | [10] > 100 µM | [11] > 100 µM | [12] > 100 µM | [13] > 100 µM | [14] > 100 µM | [16] > 100 µM | [17] > 100 µM

Cc1ccccc1C1OC(=O)c2ccccc21 (configuration not stated)
inactive: [1] > 100 µM | [3] > 100 µM | [4] > 100 µM | [5] > 100 µM | [6] > 100 µM | [7] > 100 µM | [8] > 100 µM | [9] > 100 µM | [10] > 100 µM | [11] > 100 µM | [12] > 100 µM | [13] > 100 µM | [14] > 100 µM | [16] > 100 µM

C=CCNC(=S)NNC(=O)c1c(C)nc2sccn12
inactive: [1] > 100 µM | [2] > 100 µM | [3] > 100 µM | [4] > 100 µM | [5] > 100 µM | [6] > 100 µM | [7] > 100 µM | [8] > 100 µM | [9] > 100 µM | [10] > 100 µM | [11] > 100 µM | [12] > 100 µM | [13] > 100 µM | [14] > 100 µM | [16] > 100 µM | [17] > 100 µM

CCOC1=C2N=C(C(CC)c3ccccc3F)N=C2C(=O)c2ccccc21 (configuration not stated)
inactive: [1] > 100 µM | [2] > 100 µM | [3] > 100 µM | [4] > 100 µM | [6] > 100 µM | [7] > 100 µM | [8] > 100 µM | [9] 24 µM | [11] 3.27 µM | [12] 8.45 µM | [13] > 100 µM | [14] > 100 µM | [15] > 100 µM | [16] 2.98 µM | [17] > 100 µM

COc1cc2oc(-c3ccccc3)cc(=O)c2c(O)c1C
inactive: [1] > 100 µM | [2] > 100 µM | [3] > 100 µM | [4] > 100 µM | [5] > 100 µM | [6] > 100 µM | [7] > 100 µM | [8] > 100 µM | [9] > 100 µM | [10] > 100 µM | [11] > 100 µM | [12] > 100 µM | [13] > 100 µM | [14] > 100 µM | [15] > 100 µM | [17] > 100 µM

NNC(=O)N/N=C1\C(=O)N(c2ccc(Cl)c(Cl)c2)C(=O)C(=O)C1c1nc2ccccc2s1 (configuration not stated)
inactive: [1] > 100 µM | [2] > 100 µM | [3] 50.2 µM | [5] > 100 µM | [6] > 100 µM | [7] > 100 µM | [8] > 100 µM | [9] 69.3 µM | [10] > 100 µM | [11] > 100 µM | [12] > 100 µM | [13] > 100 µM | [14] > 100 µM | [16] 38.5 µM | [17] > 100 µM

NCC(NC(=O)OCc1ccccc1)C(=O)O (configuration not stated)
inactive: [1] > 50 µM | [2] > 50 µM | [3] > 50 µM | [4] > 50 µM | [5] > 50 µM | [6] > 50 µM | [7] > 50 µM | [8] > 50 µM | [9] > 50 µM | [10] > 50 µM | [11] > 50 µM | [12] > 50 µM | [13] > 50 µM | [14] > 50 µM | [15] > 50 µM | [17] > 50 µM
